The values below come from patent US7829499B2, “Granular pesticide preparation” (Kumiai Chemical Industry Co., Ltd., priority 2003, dated 2010).

The nature of the data set: pKa of the pesticidal active ingredient. Type of data set: physicochemical. An excerpt: When the acidic pesticidal active ingredient having the above specified pKa is used, the pKa of the ingredient is, for example, measured by a method described in “Jikken Kagaku Kouza”, Vol. 5 (thermal measurement and equilibrium), p. 469-p. 474, Maruzen Co., Ltd. published Jan. 20, 1958 and elsewhere.

For the compound `CCc1cccc(C(O)c2nc(OC)cc(OC)n2)c1NS(=O)(=O)C(F)F` (centres unmarked) [compound B, 2-[(4,6-dimethoxypyrimidin-2-yl)hydroxymethyl]-6-ethyl-N-difluoromethanesulfonyl anilide], the pKa stood at 6.17.
`COCc1cccc(C(O)c2nc(OC)cc(OC)n2)c1NS(=O)(=O)C(F)F` (centres unmarked) [compound A, 2-[(4,6-dimethoxypyrimidin-2-yl)hydroxymethyl]-6-methoxymethyl-N-difluoromethanesulfonyl anilide] yielded a pKa of 5.75.
